Results: publication PMC11822212, “High-throughput screening identifies Aurora kinase B as a critical therapeutic target for Merkel cell carcinoma” (Nature Communications, 2025)

Legend:
NIH-3T3 cells = experiment: qHTS cell viability (CellTiter-Glo, 72 h; primary screen), control cell line; type: cell-based, mouse; settings: MIPE library, 11-point DRC, control cell line, sheet S2E
WAGA cells (VP-MCC) = experiment: qHTS cell viability (CellTiter-Glo, 72 h; primary and follow-up small molecule screen); type: cell-based, human; settings: MIPE library, 11-point DRC, sheet S2E
[1] = tested on: MCC cell lines (WAGA, MKL-1, MKL-2, MCC13, MCC26, UISO); experiment: qHTS cell viability, all six MCC cell lines as a group (mean AUC, MCC.avg); type: cell-based, human; settings: MIPE library, mean AUC of six MCC cell lines, sheet S2E
CRL-7250 cells = experiment: qHTS cell viability (CellTiter-Glo, 72 h; primary screen), control cell line; type: cell-based; settings: MIPE library, 11-point DRC, control cell line, sheet S2E
MCC13 cells (VN-MCC) = experiment: qHTS cell viability (CellTiter-Glo, 72 h; primary and follow-up small molecule screen); type: cell-based, human; settings: MIPE library, 11-point DRC, sheet S2E
[2] = tested on: VP-MCC cell lines (WAGA, MKL-1, MKL-2); experiment: qHTS cell viability, VP-MCC cell lines as a group (mean AUC, VP.MCC.avg); type: cell-based, human; settings: MIPE library, sheet S2E; for Control-VP-MCC: Control AUC minus VP-MCC AUC (therapeutic window); for VP-MCC_Avg_AUC: mean AUC of VP-MCC cell lines
MCC26 cells (VN-MCC) = experiment: qHTS cell viability (CellTiter-Glo, 72 h; primary and follow-up small molecule screen); type: cell-based, human; settings: MIPE library, 11-point DRC, sheet S2E
[3] = tested on: VN-MCC cell lines (MCC13, MCC26, UISO); experiment: qHTS cell viability, VN-MCC cell lines as a group (mean AUC, VN.MCC.avg); type: cell-based, human; settings: MIPE library, sheet S2E; for Control-VN-MCC: Control AUC minus VN-MCC AUC (therapeutic window); for VN-MCC_Avg_AUC: mean AUC of VN-MCC cell lines
MKL-2 cells (VP-MCC) = experiment: qHTS cell viability (CellTiter-Glo, 72 h; primary and follow-up small molecule screen); type: cell-based, human; settings: MIPE library, 11-point DRC, sheet S2E
UISO cells (VN-MCC) = experiment: as above; type: cell-based, human; settings: MIPE library, 11-point DRC, sheet S2E
MKL-1 cells (VP-MCC) = experiment: as above; type: cell-based, human; settings: MIPE library, 11-point DRC, sheet S2E
[4] = tested on: six MCC cell lines and four control cell lines; experiment: qHTS cell viability, all 10 cell lines screened; type: cell-based; settings: MIPE library, Control AUC minus MCC AUC (therapeutic window), sheet S2E
HEK293T cells = experiment: qHTS cell viability (CellTiter-Glo, 72 h; primary screen), control cell line; type: cell-based, human; settings: MIPE library, 11-point DRC, control cell line, sheet S2E
[5] = tested on: control cell lines (HACAT, HEK293T, CRL-7250, NIH-3T3); experiment: qHTS cell viability, control cell lines as a group (mean AUC, Control.avg); type: cell-based; settings: MIPE library, mean AUC of control cell lines, sheet S2E
HACAT cells = experiment: qHTS cell viability (CellTiter-Glo, 72 h; primary screen), control cell line; type: cell-based, human; settings: MIPE library, 11-point DRC, control cell line, sheet S2E

For `C=C1/C(=C\C=C2/CCC[C@]3(C)[C@@H]([C@H](C)/C=C/[C@H](C)C(C)C)CC[C@@H]23)C[C@@H](O)C[C@@H]1O` [1-alpha-Hydroxyergocalciferol], the NIH3T3_AUC (NIH-3T3 cells) was 349.858, the WAGA_AUC (WAGA cells (VP-MCC)) was 235.191 and the MCC_Avg_AUC [1] was 361.046. The CRL7250_AUC (CRL-7250 cells) was 418.5, the MCC13_AUC (MCC13 cells (VN-MCC)) was 466.906 and the Control-VP-MCC [2] was 133.527. For the same compound, the VP-MCC_Avg_AUC [2] was 294.68, the MCC26_AUC (MCC26 cells (VN-MCC)) was 429.194 and the Control-VN-MCC [3] was 0.7959. The VN-MCC_Avg_AUC [3] was 427.411, the MKL2_AUC (MKL-2 cells (VP-MCC)) was 310.498 and the UISO_AUC (UISO cells (VN-MCC)) was 386.134. The MKL1_AUC (MKL-1 cells (VP-MCC)) was 338.352, the Control-MCC [4] was 67.1615 and the HEK293T_AUC (HEK293T cells) was 473.524. It also gave a Control_Avg_AUC [5] of 428.207 and an HACAT_AUC (HACAT cells) of 470.948.

`CC1(C)CCC(c2ccc(Cl)cc2)=C(CN2CCN(c3ccc(C(=O)N[S+](=O)([O-])c4ccc(N[C@H](CCN5CCOCC5)CSc5ccccc5)c([S+](=O)([O-])C(F)(F)F)c4)cc3)CC2)C1` [ABT-263 (Navitoclax)] gave an NIH3T3_AUC (NIH-3T3 cells) of 462.454, a WAGA_AUC (WAGA cells (VP-MCC)) of 250.192 and an MCC_Avg_AUC [1] of 382.812. The CRL7250_AUC (CRL-7250 cells) was 467.721, the MCC13_AUC (MCC13 cells (VN-MCC)) was 470.158 and the Control-VP-MCC [2] was 189.019. The VP-MCC_Avg_AUC [2] was 272.305, the MCC26_AUC (MCC26 cells (VN-MCC)) was 476.41 and the Control-VN-MCC [3] was -31.9962. The VN-MCC_Avg_AUC [3] was 493.32, the MKL2_AUC (MKL-2 cells (VP-MCC)) was 277.677 and the UISO_AUC (UISO cells (VN-MCC)) was 533.391. For the same compound, the MKL1_AUC (MKL-1 cells (VP-MCC)) was 289.046, the Control-MCC [4] was 78.5112 and the HEK293T_AUC (HEK293T cells) was 470.677. It also gave a Control_Avg_AUC [5] of 461.324 and an HACAT_AUC (HACAT cells) of 444.442.

`CN(C)CC[C@H](CSc1ccccc1)Nc1ccc(S(=O)(=O)NC(=O)c2ccc(N3CCN(Cc4ccccc4-c4ccc(Cl)cc4)CC3)cc2)cc1[N+](=O)[O-]` [ABT-737] was tested, and the NIH3T3_AUC (NIH-3T3 cells) was 431.249, the WAGA_AUC (WAGA cells (VP-MCC)) was 285.196 and the MCC_Avg_AUC [1] was 390.211. For the same compound, the CRL7250_AUC (CRL-7250 cells) was 467.3, the MCC13_AUC (MCC13 cells (VN-MCC)) was 474.092 and the Control-VP-MCC [2] was 140.507. The VP-MCC_Avg_AUC [2] was 302.738, the MCC26_AUC (MCC26 cells (VN-MCC)) was 472.052 and the Control-VN-MCC [3] was -34.4381. For the same compound, the VN-MCC_Avg_AUC [3] was 477.683, the MKL2_AUC (MKL-2 cells (VP-MCC)) was 288.506 and the UISO_AUC (UISO cells (VN-MCC)) was 486.905. It also gave an MKL1_AUC (MKL-1 cells (VP-MCC)) of 334.511, a Control-MCC [4] of 53.0346 and an HEK293T_AUC (HEK293T cells) of 444.395. It also gave a Control_Avg_AUC [5] of 443.245 and an HACAT_AUC (HACAT cells) of 430.037.

For `COCC1(CO)C(=O)C2CCN1CC2` (centres unmarked) [APR-246], the NIH3T3_AUC (NIH-3T3 cells) was 403.185, the WAGA_AUC (WAGA cells (VP-MCC)) was 329.393 and the MCC_Avg_AUC [1] was 392.899. It also gave a CRL7250_AUC (CRL-7250 cells) of 448.778, an MCC13_AUC (MCC13 cells (VN-MCC)) of 460.845 and a Control-VP-MCC [2] of 94.289. It also gave a VP-MCC_Avg_AUC [2] of 335.282, an MCC26_AUC (MCC26 cells (VN-MCC)) of 464.929 and a Control-VN-MCC [3] of -20.9457. For the same compound, the VN-MCC_Avg_AUC [3] was 450.517, the MKL2_AUC (MKL-2 cells (VP-MCC)) was 331.652 and the UISO_AUC (UISO cells (VN-MCC)) was 425.775. The MKL1_AUC (MKL-1 cells (VP-MCC)) was 344.8, the Control-MCC [4] was 36.6717 and the HEK293T_AUC (HEK293T cells) was 390.353. It also gave a Control_Avg_AUC [5] of 429.571 and an HACAT_AUC (HACAT cells) of 475.968.
